Results on five compounds are retold here after paper PMC11833279, “Versatile Features of an Antibody Mimetic Peptide and Its Variants” (Journal of Peptide Science, 2025).

Like-named read-outs stand apart in the source and are kept apart here. Non-standard residues stand in square brackets, D forms with d. Residues, ends and D or L forms follow the SMILES beside them. *: point of attachment. Biotin = O=C1N[C@H]2[C@H](CS[C@H]2CCCCC(=O)*)N1; Ahx = NCCCCCC(=O)O; βAla = NCCC(=O)O

For orientation: EC50 means the midpoint of the concentration-response curve. One may read the IC50 as the concentration that inhibits the measured activity by half.

In one assay the test system is GALV‐RV. The class given is cell-based. To be noted: read-out: GALV‐RV transduction enhancing effect EC50; Jurkat cells, GFP‐expressing GALV‐RV, peptide‐virus mix incubated 10 min, GFP by flow cytometry 2 days posttransduction; three independent experiments ± SD. Here is the method: For the generation of GFP‐expressing γ‐retroviral vector pseudotyped with the glycoprotein of gibbon ape leukemia virus (GALV‐RV), 800,000 HEK293T cells were initially seeded and cotransfected as previously described using following plasmids:GFP‐expressing Murine leukemia virus (MLV) vector E200 pcmE26‐gfp (1.15 μg), E848 pCsGPpA‐ed (0.95 μg), and GALV glycoprotein (0.4 μg).
For the determination of transduction enhancement of GFP‐expressing GALV‐RV, 50,000 Jurkat cells (ATCC, TIB‐152) were seeded in 180 μL RPMI medium (Gibco, 11875093) supplemented with 10% inactivated fetal calf serum (FCS, Gibco, 10437028), 2 mM L‐glutamine (PAN‐Biotech, P04–80050), 100 U/mL penicillin, and 100 μg/mL streptomycin (PAN‐Biotech, P06–07050). Different concentrations of peptides were 1:1 (v/v) mixed with GALV‐RV (1280 dilution on cells) and incubated for 10 min. Subsequently, 20 μL of the virus‐peptide mix was added to cells, and 2 days posttransduction, GFP‐expression was analyzed by flow cytometry using CytoFlex (Beckmann Coulter), and the evaluation was carried out with FlowJo™ (Version 10.8.1).
Background: In flow cytometry, cells or beads pass a laser one at a time.

For assay [1], the system named is HIV‐1NL4–3. The format is cell-based. The note with it: CEMx174 SEAP indicator cells, HIV‐1NL4–3, SEAP activity three days after infection; mean and standard error of at least three independent experiments; read-out: HIV‐1 neutralizing activity IC50. The method, then:
The plasmid HIV‐1pBRNL4–3, kindly provided by F. Kirchhoff, Ulm, was propagated in XL‐1 Blue competent cells (Stratagene – an Agilent Technologies Division, Waldbronn, Germany) and transfected into 293 T cells using FuGENE HD (Roche, Mannheim, Germany). After 48 h, supernatants were cleared by filtering through 0.22 μm Millex‐GS units (Millipore, Schwalbach, Germany) and stored in aliquots at −80°C.
The indicator cell line CEMx174, which was kindly provided by R. E. Means and R. C. Desrosiers, contained the gene for the secreted alkaline phosphatase (SEAP) under the control of the simian immunodeficiency virus long terminal repeat. Three days after HIV‐1NL4–3 infection, cell culture supernatants were removed and analyzed for SEAP activity using the Phospha‐Light kit (Life Technologies, Darmstadt, Germany) according to the manufacturer's recommendations. Data represent mean and standard error of at least three independently performed experiments.

The test system of assay [2] is HIV‐1NL4–3. The note with it: HIV‐1 neutralization; read-out: HIV‐1 neutralizing activity IC50; cited from earlier work. The source says: Addressing the significance of the disulfide bridge in H1H3, a linear variant (H1H3s) was generated, in which the two cysteine residues were replaced by serine (see Table 1 for peptide sequences).

On to `CC[C@H](C)[C@H](NC(=O)[C@@H](NC(=O)[C@H](Cc1ccccc1)NC(=O)[C@H](CC(N)=O)NC(=O)[C@H](CO)NC(=O)[C@H](Cc1ccccc1)NC(=O)[C@H](CCCNC(=N)N)NC(=O)[C@H](Cc1ccc(O)cc1)NC(=O)CNC(C)=O)C(C)C)C(=O)N[C@@H](Cc1c[nH]cn1)C(=O)N[C@@H](Cc1c[nH]c2ccccc12)C(=O)NCC(=O)NCCC(=O)NCC(=O)NCCCCCC(=O)NCC(=O)N[C@@H](CCCCNC(=O)CCCC[C@@H]1SC[C@@H]2NC(=O)N[C@@H]21)C(=O)NCC(=O)NCCCCCC(=O)N[C@@H](CO)C(=O)N[C@H](C(=O)NCC(=O)N1CCC[C@H]1C(=O)N[C@@H](Cc1ccc(O)cc1)C(=O)N[C@@H](CO)C(=O)N[C@@H](Cc1c[nH]c2ccccc12)C(=O)N[C@@H](CC(=O)O)C(=O)N[C@@H](CCCCN)C(=O)N[C@@H](CO)C(=O)N1CCC[C@H]1C(=O)N[C@@H](CCC(N)=O)C(=O)N[C@@H](CC(=O)O)C(=O)N[C@@H](CC(N)=O)C(=O)N[C@@H](Cc1ccc(O)cc1)C(=O)N[C@@H](CCSC)C(=O)N[C@@H](CC(=O)O)C(=O)N[C@@H](CO)C(N)=O)C(C)C` [H1H3s‐D100^bK] (Ac-GYRFSNFVIHWG[βAla]G[Ahx]GK(Biotin)G[Ahx]SVGPYSWDKSPQDNYMDS-NH2), for which the EC50 in the assay on GALV‐RV was determined as 630 ± 40 nM.
Consider `CC[C@H](C)[C@H](NC(=O)[C@H](NC(=O)[C@H](Cc1ccccc1)NC(=O)[C@@H](CC(N)=O)NC(=O)[C@H](CO)NC(=O)[C@@H](Cc1ccccc1)NC(=O)[C@H](CCCNC(=N)N)NC(=O)[C@@H](Cc1ccc(O)cc1)NC(=O)CNC(C)=O)C(C)C)C(=O)N[C@H](Cc1c[nH]cn1)C(=O)N[C@@H](Cc1c[nH]c2ccccc12)C(=O)NCC(=O)NCCC(=O)NCC(=O)NCCCCCC(=O)NCC(=O)N[C@@H](CCCCNC(=O)CCCC[C@@H]1SC[C@@H]2NC(=O)N[C@@H]21)C(=O)NCC(=O)NCCCCCC(=O)N[C@H](CO)C(=O)N[C@@H](C(=O)NCC(=O)N1CCC[C@@H]1C(=O)N[C@@H](Cc1ccc(O)cc1)C(=O)N[C@H](CO)C(=O)N[C@@H](Cc1c[nH]c2ccccc12)C(=O)N[C@H](CC(=O)O)C(=O)N[C@@H](CC(=O)O)C(=O)N[C@H](CO)C(=O)N1CCC[C@H]1C(=O)N[C@H](CCC(N)=O)C(=O)N[C@@H](CC(=O)O)C(=O)N[C@H](CC(N)=O)C(=O)N[C@@H](Cc1ccc(O)cc1)C(=O)N[C@H](CCSC)C(=O)N[C@@H](CC(=O)O)C(=O)N[C@H](CO)C(N)=O)C(C)C` [H1H3s‐L/D] (Ac-G[dY]R[dF]S[dN]F[dV]I[dH]WG[βAla]G[Ahx]GK(Biotin)G[Ahx][dS][dV]G[dP]Y[dS]W[dD]D[dS]P[dQ]D[dN]Y[dM]D[dS]-NH2), for which, in the assay with HIV‐1NL4–3 [1], the 50% inhibitory concentration (IC50) was > 60000 nM.
The same measure, in the same setting: next, `CC[C@@H](C)[C@@H](NC(=O)[C@H](NC(=O)[C@@H](Cc1ccccc1)NC(=O)[C@@H](CC(N)=O)NC(=O)[C@@H](CO)NC(=O)[C@@H](Cc1ccccc1)NC(=O)[C@@H](CCCNC(=N)N)NC(=O)[C@@H](Cc1ccc(O)cc1)NC(=O)CNC(C)=O)C(C)C)C(=O)N[C@H](Cc1c[nH]cn1)C(=O)N[C@H](Cc1c[nH]c2ccccc12)C(=O)NCC(=O)NCCC(=O)NCC(=O)NCCCCCC(=O)NCC(=O)N[C@H](CCCCNC(=O)CCCC[C@@H]1SC[C@@H]2NC(=O)N[C@@H]21)C(=O)NCC(=O)NCCCCCC(=O)N[C@H](CO)C(=O)N[C@@H](C(=O)NCC(=O)N1CCC[C@@H]1C(=O)N[C@H](Cc1ccc(O)cc1)C(=O)N[C@H](CO)C(=O)N[C@H](Cc1c[nH]c2ccccc12)C(=O)N[C@H](CC(=O)O)C(=O)N[C@H](CC(=O)O)C(=O)N[C@H](CO)C(=O)N1CCC[C@@H]1C(=O)N[C@H](CCC(N)=O)C(=O)N[C@H](CC(=O)O)C(=O)N[C@H](CC(N)=O)C(=O)N[C@H](Cc1ccc(O)cc1)C(=O)N[C@H](CCSC)C(=O)N[C@H](CC(=O)O)C(=O)N[C@H](CO)C(N)=O)C(C)C` [H1H3s‐allD] (Ac-G[dY][dR][dF][dS][dN][dF][dV][dI][dH][dW]G[βAla]G[Ahx]G[dK](Biotin)G[Ahx][dS][dV]G[dP][dY][dS][dW][dD][dD][dS][dP][dQ][dD][dN][dY][dM][dD][dS]-NH2): 1900 ± 400 nM.
On the same count and under the same terms, as for `CC[C@H](C)[C@H](NC(=O)[C@@H](NC(=O)[C@H](Cc1ccccc1)NC(=O)[C@H](CC(N)=O)NC(=O)[C@H](CO)NC(=O)[C@H](Cc1ccccc1)NC(=O)[C@H](CCCNC(=N)N)NC(=O)[C@H](Cc1ccc(O)cc1)NC(=O)CNC(C)=O)C(C)C)C(=O)N[C@@H](Cc1c[nH]cn1)C(=O)N[C@@H](Cc1c[nH]c2ccccc12)C(=O)NCC(=O)NCCC(=O)NCC(=O)NCCCCCC(=O)NCC(=O)N[C@@H](CCCCNC(=O)CCCC[C@@H]1SC[C@@H]2NC(=O)N[C@@H]21)C(=O)NCC(=O)NCCCCCC(=O)N[C@@H](CO)C(=O)N[C@H](C(=O)NCC(=O)N1CCC[C@H]1C(=O)N[C@@H](Cc1ccc(O)cc1)C(=O)N[C@@H](CO)C(=O)N[C@@H](Cc1c[nH]c2ccccc12)C(=O)N[C@@H](CC(=O)O)C(=O)N[C@@H](CC(=O)O)C(=O)N[C@@H](CO)C(=O)N1CCC[C@H]1C(=O)N[C@@H](CCC(N)=O)C(=O)N[C@@H](CC(=O)O)C(=O)N[C@@H](CC(N)=O)C(=O)N[C@@H](Cc1ccc(O)cc1)C(=O)N[C@@H](CCSC)C(=O)N[C@@H](CC(=O)O)C(=O)N[C@@H](CO)C(N)=O)C(C)C` [Peptide H1H3s] (Ac-GYRFSNFVIHWG[βAla]G[Ahx]GK(Biotin)G[Ahx]SVGPYSWDDSPQDNYMDS-NH2), the figure is 6300 ± 100 nM.
For “Ac‐GYRFSNFVIHW‐GB ^b GX ^c G‐K*‐GX‐[CVGPYSWDDSPQDNYMDC]‐NH2 (disulfide) [Peptide H1H3, b12 paratope mimetic peptide presenting heavy chain CDRs H1 and H3, H3 disulfide‐bridged, biotinylated lysine between them]”, the IC50 with HIV‐1NL4–3 [2] was 1700 nM.
